According to ChEMBL document CHEMBL1148323, “Conformationally constrained peptide analogues of pTyr-Glu-Glu-Ile as inhibitors of the Src SH2 domain binding” (J Med Chem, 2004):
pIC50: −log10 of the molar value.

target: Proto-oncogene tyrosine-protein kinase Src (Homo sapiens, UniProt P12931); test: Concentration of compound required for inhibiting the binding of the fluorescent probe to the c-Src tyrosine kinase SH2 domain by 50%
Sequence (P12931 2-536 limits assumed): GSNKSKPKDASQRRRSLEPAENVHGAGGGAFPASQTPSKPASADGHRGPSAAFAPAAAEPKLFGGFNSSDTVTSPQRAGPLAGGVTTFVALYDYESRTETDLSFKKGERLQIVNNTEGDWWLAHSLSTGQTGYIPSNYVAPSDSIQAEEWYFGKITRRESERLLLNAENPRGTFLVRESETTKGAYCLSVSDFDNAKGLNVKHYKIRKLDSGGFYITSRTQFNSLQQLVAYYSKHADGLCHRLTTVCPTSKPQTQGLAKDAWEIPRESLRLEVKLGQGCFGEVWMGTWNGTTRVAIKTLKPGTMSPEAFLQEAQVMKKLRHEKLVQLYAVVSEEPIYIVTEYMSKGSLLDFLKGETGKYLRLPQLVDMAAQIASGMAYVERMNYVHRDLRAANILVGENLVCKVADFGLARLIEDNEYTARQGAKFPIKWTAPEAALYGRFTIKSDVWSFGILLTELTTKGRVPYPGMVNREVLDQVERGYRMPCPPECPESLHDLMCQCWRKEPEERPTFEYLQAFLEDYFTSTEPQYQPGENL

Compound	pIC50
CC(=O)N[C@@H](Cc1ccc(OP(=O)(O)O)cc1)C(=O)N[C@@H](CCC(=O)O)C(=O)N[C@H](CC(=O)O)CC(=O)N[C@H](C(=O)O)C(C)C	4.59
CC[C@H](C)[C@H](NC(=O)CC[C@@H]1NC(=O)[C@H](CCC(=O)O)NC(=O)[C@H](Cc2ccc(OP(=O)(O)O)cc2)NC1=O)C(=O)O	5.96
CC[C@H](C)[C@H](NC(=O)CC[C@H](NC(=O)[C@H](CCC(=O)O)NC(=O)[C@H](Cc1ccc(OP(=O)(O)O)cc1)NC(C)=O)C(=O)O)C(=O)O	4.09
CC[C@@H](C)[C@H](NC(=O)[C@H](CCC(=O)O)NC(=O)CC[C@H](NC(=O)[C@H](Cc1ccc(OP(=O)(O)O)cc1)NC(C)=O)C(=O)O)C(=O)O	4.16
CC[C@H](C)[C@H](NC(=O)[C@H](CCC(=O)O)NC(=O)[C@@H]1CCC(=O)N[C@@H](Cc2ccc(OP(=O)(O)O)cc2)C(=O)N1)C(=O)O	5.48
CC[C@H](C)[C@H](NC(=O)[C@@H]1CCC(=O)N[C@@H](Cc2ccc(OP(=O)(O)O)cc2)C(=O)N[C@@H](CCC(=O)O)C(=O)N1)C(=O)O	5.23
CC[C@@H](C)[C@H](NC(=O)[C@H](CCC(=O)O)NC(=O)C[C@H](NC(=O)[C@H](Cc1ccc(OP(=O)(O)O)cc1)NC(C)=O)C(=O)O)C(=O)O	4.12
CC[C@H](C)[C@H](NC(=O)C[C@@H]1NC(=O)[C@H](CCC(=O)O)NC(=O)[C@H](Cc2ccc(OP(=O)(O)O)cc2)NC1=O)C(=O)O	5.82
CC[C@@H](C)[C@H](NC(=O)[C@H](CCC(=O)O)NC(=O)CC[C@@H]1NC(=O)[C@H](Cc2ccc(OP(=O)(O)O)cc2)NC1=O)C(=O)O	5.92
CC[C@@H](C)[C@H](NC(=O)[C@H](CCC(=O)O)NC(=O)CC[C@H](NC(=O)[C@@H](N)Cc1ccc(OP(=O)(O)O)cc1)C(=O)O)C(=O)O	< 4.00
CC[C@H](C)[C@H](NC(=O)CC[C@H](NC(=O)[C@H](CCC(=O)O)NC(=O)[C@@H](N)Cc1ccc(OP(=O)(O)O)cc1)C(=O)O)C(=O)O	< 4.00
CC[C@@H](C)[C@H](NC(=O)[C@H](CCC(=O)O)NC(=O)C[C@@H]1NC(=O)[C@H](Cc2ccc(OP(=O)(O)O)cc2)NC1=O)C(=O)O	4.92
CC[C@H](C)[C@H](NC(=O)C[C@H](NC(=O)[C@H](CCC(=O)O)NC(=O)[C@H](Cc1ccc(OP(=O)(O)O)cc1)NC(C)=O)C(=O)O)C(=O)O	4.04
CC[C@H](C)[C@H](NC(=O)C[C@H](NC(=O)[C@H](CCC(=O)O)NC(=O)[C@@H](N)Cc1ccc(OP(=O)(O)O)cc1)C(=O)O)C(=O)O	< 4.00
CC[C@@H](C)[C@H](NC(=O)[C@H](CCC(=O)O)NC(=O)C[C@H](NC(=O)[C@@H](N)Cc1ccc(OP(=O)(O)O)cc1)C(=O)O)C(=O)O	< 4.00
CC(C)[C@H](NC(=O)C[C@@H](CC(=O)O)NC(=O)[C@H](CCC(=O)O)NC(=O)[C@@H](N)Cc1ccc(OP(=O)(O)O)cc1)C(=O)O	4.12
CC(=O)N[C@@H](Cc1ccc(OP(=O)(O)O)cc1)C(=O)N[C@@H](C(=O)O)C(=O)N[C@H](CCC(=O)O)CC(=O)N[C@H](C(=O)O)C(C)C	4.46
CC(C)[C@H](NC(=O)C[C@@H](CCC(=O)O)NC(=O)C(NC(=O)[C@@H](N)Cc1ccc(OP(=O)(O)O)cc1)C(=O)O)C(=O)O (single isomer, unassigned)	4.08
